Results on 27 molecules are retold here after ChEMBL document CHEMBL1926629, “Design, synthesis and insight into the structure-activity relationship of 1,3-disubstituted indazoles as novel HIF-1 inhibitors” (Bioorg Med Chem Lett, 2011).

Assay [1] can be described thus: Inhibition of hypoxia-induced HIF-1 transcriptional activity by luciferase reporter assay.
Assay [2] addresses Hypoxia-inducible factor 1-alpha (Homo sapiens) (UniProt Q16665). As to the kind of experiment: Inhibition of hypoxia-induced HIF1alpha protein reduction in human Hep3B cells by Western blot analysis. The class given is cell-based. Conditions: Hep 3B2.

Sequence of Hypoxia-inducible factor 1-alpha (Homo sapiens) (Q16665 whole entry, looked up): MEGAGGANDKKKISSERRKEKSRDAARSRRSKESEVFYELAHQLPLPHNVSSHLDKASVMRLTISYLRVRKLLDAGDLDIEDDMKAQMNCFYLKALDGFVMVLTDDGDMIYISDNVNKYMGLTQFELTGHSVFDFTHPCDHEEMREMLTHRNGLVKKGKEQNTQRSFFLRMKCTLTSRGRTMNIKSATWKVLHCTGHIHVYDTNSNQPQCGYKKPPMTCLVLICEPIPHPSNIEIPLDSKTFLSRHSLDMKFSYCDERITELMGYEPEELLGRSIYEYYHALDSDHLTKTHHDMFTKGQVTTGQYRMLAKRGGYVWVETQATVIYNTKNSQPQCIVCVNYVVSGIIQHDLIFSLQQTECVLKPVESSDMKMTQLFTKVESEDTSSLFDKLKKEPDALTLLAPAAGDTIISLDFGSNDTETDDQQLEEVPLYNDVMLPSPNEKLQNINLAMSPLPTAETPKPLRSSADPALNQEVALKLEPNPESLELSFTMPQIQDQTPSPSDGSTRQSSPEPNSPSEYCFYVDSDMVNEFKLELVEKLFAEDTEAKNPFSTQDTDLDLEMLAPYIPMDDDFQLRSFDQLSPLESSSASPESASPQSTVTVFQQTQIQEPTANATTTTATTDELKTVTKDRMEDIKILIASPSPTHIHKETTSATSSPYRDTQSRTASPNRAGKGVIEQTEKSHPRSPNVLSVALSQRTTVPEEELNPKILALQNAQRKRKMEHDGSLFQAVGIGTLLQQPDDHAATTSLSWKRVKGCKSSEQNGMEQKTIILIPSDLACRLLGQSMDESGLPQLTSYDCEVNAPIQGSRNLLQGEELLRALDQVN

One may read the IC50 as the concentration needed to halve the response being measured. High values mean lower potency, low ones higher potency. In assay [1], `OCc1cc(-c2nn(Cc3ccccc3)c3ccccc23)on1` yielded a 50% inhibitory concentration (IC50) of 23.9 µM. Consider `CN(C)Cc1ccc(-c2nn(C)c3ccccc23)o1`, for which the IC50 in assay [1] was found to be 8.5 µM. Molecule `NC(=O)c1ccc(-c2nn(Cc3ccccc3)c3ccccc23)o1` returned a 50% inhibitory concentration (IC50) in assay [1] of 11.9 µM.

For the molecule `Cn1nc(-c2ncc(CO)s2)c2ccccc21`, the concentration for half-maximal inhibition (IC50) in assay [1] was above 30 µM.

As to `CC(C)C(=O)OCc1ccc(-c2nn(Cc3ccccc3)c3ccccc23)o1`, in assay [1], it took 0.74 µM to reach half-maximal inhibition (IC50). Besides, the inhibition result in assay [2] was “Dose-dependent effect”.

With `Cn1nc(-c2ccc(CO)o2)c2ccccc21`, the midpoint of inhibition in assay [1], the IC50, lay at 8.9 µM. As for `[N-]=[N+]=NCc1ccc(-c2nn(Cc3ccccc3)c3ccccc23)o1`, the half-maximal inhibitory concentration (IC50) in assay [1] is above 30 µM.

The molecule `CC(=O)NCc1ccc(-c2nn(C)c3ccccc23)o1` displayed an IC50 in assay [1] of 13.4 µM. This counts as double-digit micromolar. The molecule `Cn1nc(-c2ccc(CN3CCOCC3)o2)c2ccccc21` returned an IC50 in assay [1] of 1.9 µM.

On to `Cn1nc(-c2ccc(CN3CCCCC3)o2)c2ccccc21`, for which, in assay [1], the IC50 stood at 2 µM. On the same count and under the same terms, to `OCc1cnc(-c2nn(Cc3ccccc3)c3ccccc23)s1` belongs above 30 µM. The same measure, in the same setting: the result for `OCc1cnc(-c2nn(Cc3ccccc3)c3ccccc23)o1` reads above 30 µM. Same read-out and setting: to `Cn1nc(-c2ccc(CN=[N+]=[N-])o2)c2ccccc21` belongs above 30 µM. With `CC(=O)OCc1ccc(-c2nn(C)c3ccccc23)o1`, the IC50 in assay [1] was found to be 16.9 µM. The same measure, in the same setting: to `CC(C)(C)C(=O)OCc1ccc(-c2nn(Cc3ccccc3)c3ccccc23)o1` belongs 0.89 µM; to `OCc1ccc(-c2nn(Cc3ccccc3)c3ccccc23)o1`, 1.2 µM.

For `OCc1coc(-c2nn(Cc3ccccc3)c3ccccc23)n1`, in assay [1], the IC50 was above 30 µM.

In turn, `Cn1nc(-c2ccc(CN)o2)c2ccccc21` registered an IC50 in assay [1] above 30 µM. Same read-out and setting: the result for `CNCc1ccc(-c2nn(C)c3ccccc23)o1` reads 7.7 µM; that for `OCc1ccc(-c2[nH]nc3ccccc23)o1`, 5 µM. Same read-out and setting: the result for `COC(=O)c1ccc(-c2nn(Cc3ccccc3)c3ccccc23)o1` reads 0.9 µM; that for `Cn1nc(-c2nc(CO)co2)c2ccccc21`, above 30 µM; that for `Cn1nc(-c2cc(CO)no2)c2ccccc21`, above 30 µM. `Cn1nc(-c2ncc(CO)o2)c2ccccc21` showed an IC50 in assay [1] above 30 µM.

The molecule `CC(=O)OCc1ccc(-c2nn(Cc3ccccc3)c3ccccc23)o1` had an IC50 in assay [1] of 2.3 µM. On the same count and under the same terms, the result for `O=S(=O)(c1ccccc1)n1nc(-c2ccc(CO)o2)c2ccccc21` reads 1.3 µM. In the case of `OCC1CN=C(c2nn(Cc3ccccc3)c3ccccc23)O1` (stereo not drawn), the concentration for half-maximal inhibition (IC50) in assay [1] was above 30 µM.
